Data as given in PubChem BioAssay (NCI).
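Step 1: Grow cells in 96-well plates. Step 2: Expose to compound for 48 hours at 5 concentrations. Step 3: Interpolate endpoints linearly; if unreached, use highest concentration. At the TGI there is no net growth.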

Legend:
Assay in all cases: NCI tumour cell line growth inhibition, 48 h
786-0 renal = test system: 786-0 renal
A498 renal = test system: A498 renal
A549 NSCLC = test system: A549 NSCLC
ACHN renal = test system: ACHN renal
CAKI-1 renal = test system: CAKI-1 renal
CCRF-CEM leukemia = test system: CCRF-CEM leukemia
COLO 205 colon = test system: COLO 205 colon
DU-145 prostate = test system: DU-145 prostate
EKVX NSCLC = test system: EKVX NSCLC
HCC-2998 colon = test system: HCC-2998 colon
HCT-116 colon = test system: HCT-116 colon
HCT-15 colon = test system: HCT-15 colon
HL-60(TB) leukemia = test system: HL-60(TB) leukemia
HOP-62 NSCLC = test system: HOP-62 NSCLC
HOP-92 NSCLC = test system: HOP-92 NSCLC
HS 578T breast = test system: HS 578T breast
HT29 colon = test system: HT29 colon
IGROV1 ovarian = test system: IGROV1 ovarian
K-562 leukemia = test system: K-562 leukemia
KM12 colon = test system: KM12 colon
LOX IMVI melanoma = test system: LOX IMVI melanoma
M14 melanoma = test system: M14 melanoma
MALME-3M melanoma = test system: MALME-3M melanoma
MCF7 breast = test system: MCF7 breast
MDA-MB-231 breast = test system: MDA-MB-231 breast
MDA-MB-435 = test system: MDA-MB-435
MDA-N = test system: MDA-N
MOLT-4 leukemia = test system: MOLT-4 leukemia
NCI-H226 lung = test system: NCI-H226 lung
NCI-H23 lung = test system: NCI-H23 lung
NCI-H460 lung = test system: NCI-H460 lung
NCI-H522 lung = test system: NCI-H522 lung
NCI/ADR-RES ovarian = test system: NCI/ADR-RES ovarian
OVCAR-3 ovarian = test system: OVCAR-3 ovarian
OVCAR-4 ovarian = test system: OVCAR-4 ovarian
OVCAR-5 ovarian = test system: OVCAR-5 ovarian
OVCAR-8 ovarian = test system: OVCAR-8 ovarian
PC-3 prostate = test system: PC-3 prostate
RPMI-8226 leukemia = test system: RPMI-8226 leukemia
SF-268 CNS = test system: SF-268 CNS
SF-295 CNS = test system: SF-295 CNS
SF-539 CNS = test system: SF-539 CNS
SK-MEL-2 melanoma = test system: SK-MEL-2 melanoma
SK-MEL-28 melanoma = test system: SK-MEL-28 melanoma
SK-MEL-5 melanoma = test system: SK-MEL-5 melanoma
SK-OV-3 ovarian = test system: SK-OV-3 ovarian
SN12C renal = test system: SN12C renal
SNB-19 CNS = test system: SNB-19 CNS
SNB-75 CNS = test system: SNB-75 CNS
SW-620 colon = test system: SW-620 colon
T-47D breast = test system: T-47D breast
TK-10 renal = test system: TK-10 renal
U251 CNS = test system: U251 CNS
UACC-257 melanoma = test system: UACC-257 melanoma
UACC-62 melanoma = test system: UACC-62 melanoma
UO-31 renal = test system: UO-31 renal
RXF 393 renal = test system: RXF 393 renal

CC(=O)N(CN1C(=O)CCC1C(=O)O)c1ccc(C)cc1 (stereo not given)
TGI (786-0 renal): > 100 µM | TGI (A498 renal): > 100 µM | TGI (A549 NSCLC): > 100 µM | TGI (ACHN renal): > 100 µM | TGI (CAKI-1 renal): > 100 µM | TGI (CCRF-CEM leukemia): > 100 µM | TGI (COLO 205 colon): > 100 µM | TGI (DU-145 prostate): > 100 µM | TGI (EKVX NSCLC): > 100 µM | TGI (HCC-2998 colon): > 100 µM | TGI (HCT-116 colon): > 100 µM | TGI (HCT-15 colon): > 100 µM | TGI (HL-60(TB) leukemia): > 100 µM | TGI (HOP-62 NSCLC): > 100 µM | TGI (HOP-92 NSCLC): > 100 µM | TGI (HS 578T breast): > 100 µM | TGI (HT29 colon): > 100 µM | TGI (IGROV1 ovarian): > 100 µM | TGI (K-562 leukemia): > 100 µM | TGI (KM12 colon): > 100 µM | TGI (LOX IMVI melanoma): > 100 µM | TGI (M14 melanoma): > 100 µM | TGI (MALME-3M melanoma): > 100 µM | TGI (MCF7 breast): > 100 µM | TGI (MDA-MB-231 breast): > 100 µM | TGI (MDA-MB-435): > 100 µM | TGI (MDA-N): > 100 µM | TGI (MOLT-4 leukemia): > 100 µM | TGI (NCI-H226 lung): > 100 µM | TGI (NCI-H23 lung): > 100 µM | TGI (NCI-H460 lung): > 100 µM | TGI (NCI-H522 lung): > 100 µM | TGI (NCI/ADR-RES ovarian): > 100 µM | TGI (OVCAR-3 ovarian): > 100 µM | TGI (OVCAR-4 ovarian): > 100 µM | TGI (OVCAR-5 ovarian): > 100 µM | TGI (OVCAR-8 ovarian): > 100 µM | TGI (PC-3 prostate): > 100 µM | TGI (RPMI-8226 leukemia): > 100 µM | TGI (SF-268 CNS): > 100 µM | TGI (SF-295 CNS): > 100 µM | TGI (SF-539 CNS): > 100 µM | TGI (SK-MEL-2 melanoma): > 100 µM | TGI (SK-MEL-28 melanoma): > 100 µM | TGI (SK-MEL-5 melanoma): > 100 µM | TGI (SK-OV-3 ovarian): > 100 µM | TGI (SN12C renal): > 100 µM | TGI (SNB-19 CNS): > 100 µM | TGI (SNB-75 CNS): > 100 µM | TGI (SW-620 colon): > 100 µM | TGI (T-47D breast): > 100 µM | TGI (TK-10 renal): > 100 µM | TGI (U251 CNS): > 100 µM | TGI (UACC-257 melanoma): > 100 µM | TGI (UACC-62 melanoma): > 100 µM | TGI (UO-31 renal): > 100 µM

COc1cccc([C@@H]2C/C(=N\NC(=O)C(=O)N[C@@H](C)c3ccccc3)c3cc4c(cc3N2)OCO4)c1
TGI (786-0 renal): > 100 µM | TGI (A498 renal): > 100 µM | TGI (A549 NSCLC): > 100 µM | TGI (ACHN renal): > 100 µM | TGI (CAKI-1 renal): > 100 µM | TGI (CCRF-CEM leukemia): > 100 µM | TGI (COLO 205 colon): 68.8 µM | TGI (DU-145 prostate): > 100 µM | TGI (EKVX NSCLC): > 100 µM | TGI (HCC-2998 colon): > 100 µM | TGI (HCT-116 colon): > 100 µM | TGI (HCT-15 colon): > 100 µM | TGI (HOP-62 NSCLC): > 100 µM | TGI (HOP-92 NSCLC): > 100 µM | TGI (HS 578T breast): > 100 µM | TGI (K-562 leukemia): > 100 µM | TGI (KM12 colon): > 100 µM | TGI (LOX IMVI melanoma): > 100 µM | TGI (M14 melanoma): > 100 µM | TGI (MCF7 breast): > 100 µM | TGI (MDA-MB-231 breast): > 100 µM | TGI (MDA-MB-435): 17.2 µM | TGI (MDA-N): 28.4 µM | TGI (MOLT-4 leukemia): > 100 µM | TGI (NCI-H226 lung): > 100 µM | TGI (NCI/ADR-RES ovarian): > 100 µM | TGI (OVCAR-3 ovarian): > 100 µM | TGI (OVCAR-4 ovarian): > 100 µM | TGI (OVCAR-5 ovarian): > 100 µM | TGI (PC-3 prostate): > 100 µM | TGI (RPMI-8226 leukemia): > 100 µM | TGI (RXF 393 renal): > 100 µM | TGI (SF-268 CNS): > 100 µM | TGI (SF-295 CNS): > 100 µM | TGI (SF-539 CNS): > 100 µM | TGI (SK-MEL-2 melanoma): > 100 µM | TGI (SK-MEL-28 melanoma): > 100 µM | TGI (SK-MEL-5 melanoma): 65.3 µM | TGI (SK-OV-3 ovarian): > 100 µM | TGI (SN12C renal): > 100 µM | TGI (SNB-19 CNS): > 100 µM | TGI (SNB-75 CNS): > 100 µM | TGI (SW-620 colon): > 100 µM | TGI (T-47D breast): > 100 µM | TGI (TK-10 renal): > 100 µM | TGI (U251 CNS): > 100 µM | TGI (UACC-257 melanoma): > 100 µM | TGI (UACC-62 melanoma): > 100 µM | TGI (UO-31 renal): > 100 µM
